# Experimental data as given in ChEMBL document CHEMBL1121877, “Isomeric phenylthioimidazo[1,2-alpha]pyridines as anthelmintics” (1981).
# Legend:
# Type in all cases: functional
# Mus musculus [1] = species: Mus musculus; assay: Compound (1000 p.p.m.) was tested for percent reduction of Nematospiroides dubius in mice
# Mus musculus [2] = species: Mus musculus; assay: Compound (62.5 p.p.m.) was tested for percent reduction of Nematospiroides dubius in mice
# Mus musculus [3] = species: Mus musculus; assay: Compound (500 p.p.m.) was tested for percent reduction of Nematospiroides dubius in mice
# Mus musculus [4] = species: Mus musculus; assay: Compound (250 p.p.m.) was tested for percent reduction of Nematospiroides dubius in mice
# Mus musculus [5] = species: Mus musculus; assay: Compound (125 p.p.m.) was tested for percent reduction of Nematospiroides dubius in mice
SMILES,Reduction (Mus musculus [1]) [%],Reduction (Mus musculus [2]) [%],Reduction (Mus musculus [3]) [%],Reduction (Mus musculus [4]) [%],Reduction (Mus musculus [5]) [%]
COC(=O)Nc1cn2ccccc2n1,54,,,,
COC(=O)Nc1cn2c(Sc3ccccc3)cccc2n1,0,,,,
COC(=O)Nc1cn2cc(Sc3ccccc3)ccc2n1,,20,100,98,75
COC(=O)Nc1cn2cccc(Sc3ccccc3)c2n1,0,,,,
COC(=O)Nc1cn2cc([S+]([O-])c3ccccc3)ccc2n1 (stereo not given),,90,,100,100
COC(=O)Nc1cn2ccc(Sc3ccccc3)cc2n1,0,,,,
CC(C)OC(=O)Nc1ccc2[nH]c(-c3cscn3)nc2c1 [CAMBENDAZOLE],100,0,80,20,0
COC(=O)Nc1nc2cc(Sc3ccccc3)ccc2[nH]1 [FENBENDAZOLE],,0,100,97,74
c1ccc2[nH]c(-c3cscn3)nc2c1 [THIABENDAZOLE],87,0,47,0,0
